# Experimental data from publication PMC9851200, “Multiparameter phenotypic screening for endogenous TFEB and TFE3 translocation identifies novel chemical series modulating lysosome function” (Autophagy, 2022).
# Experiments:
# endogenous TFEB = assay: TFEB nuclear translocation, immunocytochemistry high-content imaging; type: cell-based; conditions: PKIS2 primary screening
# endogenous TFE3 = assay: TFE3 nuclear translocation, immunocytochemistry high-content imaging; type: cell-based; conditions: for TFE3 %: PKIS2 primary screening; for nTFE3 %: primary screen, 1 µM, 24 h, SH-SY5Y
# SH-SY5Y cells = conditions: PKIS2 primary screening; for DQ Intensity: DQ Red BSA intensity; for DQ Spot: DQ Red BSA spot count; as to all read-outs here: reference of the scale not given here
# PRKD1 = target: T1, PRKD1 (Homo sapiens, UniProt Q15139); conditions: cited from earlier work
# T1 sequence (Q15139 1-912): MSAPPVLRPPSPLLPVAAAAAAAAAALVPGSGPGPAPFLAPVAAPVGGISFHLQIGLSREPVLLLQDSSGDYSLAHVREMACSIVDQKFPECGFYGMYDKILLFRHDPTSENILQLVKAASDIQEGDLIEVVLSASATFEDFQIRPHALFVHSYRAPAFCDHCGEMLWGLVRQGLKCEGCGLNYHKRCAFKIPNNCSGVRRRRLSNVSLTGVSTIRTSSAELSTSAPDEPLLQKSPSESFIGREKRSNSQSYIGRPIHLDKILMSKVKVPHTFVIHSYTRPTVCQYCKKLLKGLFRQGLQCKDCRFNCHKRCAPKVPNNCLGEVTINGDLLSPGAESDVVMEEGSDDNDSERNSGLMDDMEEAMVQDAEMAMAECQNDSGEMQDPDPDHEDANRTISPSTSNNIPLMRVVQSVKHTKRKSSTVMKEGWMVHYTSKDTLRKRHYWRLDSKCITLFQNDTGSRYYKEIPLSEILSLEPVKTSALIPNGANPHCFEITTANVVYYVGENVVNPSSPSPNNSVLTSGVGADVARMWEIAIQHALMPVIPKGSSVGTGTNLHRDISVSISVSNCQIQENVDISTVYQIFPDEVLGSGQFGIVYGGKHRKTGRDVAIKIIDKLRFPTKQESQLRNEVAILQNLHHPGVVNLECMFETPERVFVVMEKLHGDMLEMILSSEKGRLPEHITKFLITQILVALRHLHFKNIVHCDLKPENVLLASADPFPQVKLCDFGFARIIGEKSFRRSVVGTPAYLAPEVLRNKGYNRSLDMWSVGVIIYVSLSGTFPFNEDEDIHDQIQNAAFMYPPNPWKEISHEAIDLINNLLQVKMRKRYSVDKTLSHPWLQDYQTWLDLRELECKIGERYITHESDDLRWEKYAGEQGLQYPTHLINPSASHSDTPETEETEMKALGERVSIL
# CDC42BPG/DMPK2 = CDC42BPG/DMPK2 (Homo sapiens, UniProt Q6DT37); conditions: cited from earlier work
# Chain of CDC42BPG/DMPK2 (Q6DT37 whole entry): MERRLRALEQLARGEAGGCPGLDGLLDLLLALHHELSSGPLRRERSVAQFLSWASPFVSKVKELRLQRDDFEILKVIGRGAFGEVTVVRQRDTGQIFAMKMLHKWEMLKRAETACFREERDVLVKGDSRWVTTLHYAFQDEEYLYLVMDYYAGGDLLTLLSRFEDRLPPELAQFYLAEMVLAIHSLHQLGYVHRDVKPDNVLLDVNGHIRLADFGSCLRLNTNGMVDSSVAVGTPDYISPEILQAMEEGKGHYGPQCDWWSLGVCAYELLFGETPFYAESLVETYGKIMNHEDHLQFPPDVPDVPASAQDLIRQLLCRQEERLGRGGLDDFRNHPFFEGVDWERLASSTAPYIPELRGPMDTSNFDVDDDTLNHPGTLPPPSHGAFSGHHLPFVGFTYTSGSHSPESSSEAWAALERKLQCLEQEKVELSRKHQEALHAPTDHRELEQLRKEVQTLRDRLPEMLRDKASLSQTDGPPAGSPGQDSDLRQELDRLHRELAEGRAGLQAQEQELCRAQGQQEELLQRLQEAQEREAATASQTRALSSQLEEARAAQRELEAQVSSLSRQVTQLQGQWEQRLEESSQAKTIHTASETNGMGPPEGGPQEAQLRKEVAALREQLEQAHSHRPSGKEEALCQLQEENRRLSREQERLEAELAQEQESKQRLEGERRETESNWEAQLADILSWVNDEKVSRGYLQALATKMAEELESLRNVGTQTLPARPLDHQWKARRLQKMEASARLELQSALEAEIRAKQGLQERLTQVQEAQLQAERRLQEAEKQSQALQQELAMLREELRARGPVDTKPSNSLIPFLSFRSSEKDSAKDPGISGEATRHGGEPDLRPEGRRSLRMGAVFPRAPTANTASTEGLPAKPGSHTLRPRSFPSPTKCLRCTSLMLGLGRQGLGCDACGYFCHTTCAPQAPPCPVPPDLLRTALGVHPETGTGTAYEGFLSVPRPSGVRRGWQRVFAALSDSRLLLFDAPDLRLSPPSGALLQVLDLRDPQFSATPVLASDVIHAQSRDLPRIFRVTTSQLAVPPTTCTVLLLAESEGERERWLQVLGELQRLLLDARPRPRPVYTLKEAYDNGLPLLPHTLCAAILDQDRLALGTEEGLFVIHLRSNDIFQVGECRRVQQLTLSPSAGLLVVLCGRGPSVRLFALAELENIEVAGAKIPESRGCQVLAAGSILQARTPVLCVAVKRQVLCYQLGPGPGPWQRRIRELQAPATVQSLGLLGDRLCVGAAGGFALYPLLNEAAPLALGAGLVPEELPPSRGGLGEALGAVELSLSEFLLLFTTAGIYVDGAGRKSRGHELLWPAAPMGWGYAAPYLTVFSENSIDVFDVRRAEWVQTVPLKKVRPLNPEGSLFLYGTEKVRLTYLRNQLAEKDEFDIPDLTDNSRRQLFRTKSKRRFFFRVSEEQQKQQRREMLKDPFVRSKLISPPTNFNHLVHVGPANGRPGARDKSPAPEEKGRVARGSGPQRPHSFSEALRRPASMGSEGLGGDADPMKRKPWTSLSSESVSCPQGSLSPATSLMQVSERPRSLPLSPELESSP
# CIT = CIT (Homo sapiens, UniProt O14578); conditions: cited from earlier work
# ACVR1B = target: T2, ACVR1B (Homo sapiens, UniProt P36896); conditions: cited from earlier work
# T2 sequence (P36896 24-505): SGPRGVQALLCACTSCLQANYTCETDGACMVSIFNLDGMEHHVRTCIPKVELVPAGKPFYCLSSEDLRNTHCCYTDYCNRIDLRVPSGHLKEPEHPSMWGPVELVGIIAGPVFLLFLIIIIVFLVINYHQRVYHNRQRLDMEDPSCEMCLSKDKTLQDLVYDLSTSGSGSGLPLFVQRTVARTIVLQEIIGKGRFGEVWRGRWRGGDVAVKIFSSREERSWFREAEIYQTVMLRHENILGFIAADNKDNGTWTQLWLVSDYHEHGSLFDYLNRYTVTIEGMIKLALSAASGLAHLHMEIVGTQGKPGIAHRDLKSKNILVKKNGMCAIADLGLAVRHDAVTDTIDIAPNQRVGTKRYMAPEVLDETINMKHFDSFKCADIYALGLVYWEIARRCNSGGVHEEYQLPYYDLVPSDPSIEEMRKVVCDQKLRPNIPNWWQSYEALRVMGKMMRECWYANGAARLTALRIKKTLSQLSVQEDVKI
# PRKD3 = target: T3, PRKD3 (Homo sapiens, UniProt O94806); conditions: cited from earlier work
# T3 sequence (O94806 1-890): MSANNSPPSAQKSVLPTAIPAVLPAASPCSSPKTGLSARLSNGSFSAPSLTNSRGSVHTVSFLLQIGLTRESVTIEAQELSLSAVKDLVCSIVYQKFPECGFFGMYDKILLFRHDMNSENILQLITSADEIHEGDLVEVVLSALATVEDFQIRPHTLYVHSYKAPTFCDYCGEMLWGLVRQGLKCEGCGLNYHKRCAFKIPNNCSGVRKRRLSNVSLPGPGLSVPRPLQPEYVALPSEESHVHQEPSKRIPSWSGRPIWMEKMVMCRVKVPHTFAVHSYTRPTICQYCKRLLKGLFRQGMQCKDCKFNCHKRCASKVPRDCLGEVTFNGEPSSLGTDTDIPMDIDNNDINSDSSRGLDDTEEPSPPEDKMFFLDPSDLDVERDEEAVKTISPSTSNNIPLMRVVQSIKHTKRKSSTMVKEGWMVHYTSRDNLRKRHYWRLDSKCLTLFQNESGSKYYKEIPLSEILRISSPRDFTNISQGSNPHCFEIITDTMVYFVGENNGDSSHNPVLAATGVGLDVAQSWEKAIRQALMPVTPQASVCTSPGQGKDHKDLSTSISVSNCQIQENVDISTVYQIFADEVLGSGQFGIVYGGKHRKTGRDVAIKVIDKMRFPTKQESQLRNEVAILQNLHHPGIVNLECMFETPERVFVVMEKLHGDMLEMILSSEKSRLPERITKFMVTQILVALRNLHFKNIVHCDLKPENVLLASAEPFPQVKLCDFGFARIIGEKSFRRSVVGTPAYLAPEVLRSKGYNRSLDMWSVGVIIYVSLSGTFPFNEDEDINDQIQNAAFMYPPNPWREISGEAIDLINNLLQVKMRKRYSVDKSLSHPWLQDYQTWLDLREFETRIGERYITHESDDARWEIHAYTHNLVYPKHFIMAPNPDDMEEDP
# JAK1(JH2) = target: T4, JAK1(JH2) (Homo sapiens, UniProt P23458); conditions: cited from earlier work
# T4 construct: JAK1(JH2)
# T4 sequence (P23458 583-855 limits assumed): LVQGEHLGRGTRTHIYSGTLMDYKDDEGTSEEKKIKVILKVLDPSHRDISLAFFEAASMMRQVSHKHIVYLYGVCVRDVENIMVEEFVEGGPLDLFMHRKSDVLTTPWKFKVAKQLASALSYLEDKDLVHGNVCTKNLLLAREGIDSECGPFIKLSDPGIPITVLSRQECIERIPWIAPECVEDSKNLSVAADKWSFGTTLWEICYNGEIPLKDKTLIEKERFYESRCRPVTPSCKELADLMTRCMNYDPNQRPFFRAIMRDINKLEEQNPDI
# CSNK1D = CSNK1D (Homo sapiens, UniProt P48730); conditions: cited from earlier work
# Chain of CSNK1D (P48730 whole entry): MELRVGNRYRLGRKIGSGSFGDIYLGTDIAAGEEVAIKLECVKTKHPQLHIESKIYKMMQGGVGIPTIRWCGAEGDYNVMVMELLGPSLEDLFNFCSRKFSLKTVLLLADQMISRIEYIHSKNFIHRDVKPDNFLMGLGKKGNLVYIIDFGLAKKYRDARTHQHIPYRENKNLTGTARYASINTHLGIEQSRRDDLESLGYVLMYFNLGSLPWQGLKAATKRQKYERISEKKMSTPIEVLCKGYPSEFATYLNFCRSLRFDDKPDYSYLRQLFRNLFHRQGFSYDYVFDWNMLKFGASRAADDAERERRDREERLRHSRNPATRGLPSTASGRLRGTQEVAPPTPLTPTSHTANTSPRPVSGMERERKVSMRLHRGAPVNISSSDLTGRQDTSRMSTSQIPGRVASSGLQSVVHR
# PIKFYVE = PIKFYVE (Homo sapiens, UniProt Q9Y2I7); conditions: cited from earlier work
# Chain of PIKFYVE (Q9Y2I7 whole entry): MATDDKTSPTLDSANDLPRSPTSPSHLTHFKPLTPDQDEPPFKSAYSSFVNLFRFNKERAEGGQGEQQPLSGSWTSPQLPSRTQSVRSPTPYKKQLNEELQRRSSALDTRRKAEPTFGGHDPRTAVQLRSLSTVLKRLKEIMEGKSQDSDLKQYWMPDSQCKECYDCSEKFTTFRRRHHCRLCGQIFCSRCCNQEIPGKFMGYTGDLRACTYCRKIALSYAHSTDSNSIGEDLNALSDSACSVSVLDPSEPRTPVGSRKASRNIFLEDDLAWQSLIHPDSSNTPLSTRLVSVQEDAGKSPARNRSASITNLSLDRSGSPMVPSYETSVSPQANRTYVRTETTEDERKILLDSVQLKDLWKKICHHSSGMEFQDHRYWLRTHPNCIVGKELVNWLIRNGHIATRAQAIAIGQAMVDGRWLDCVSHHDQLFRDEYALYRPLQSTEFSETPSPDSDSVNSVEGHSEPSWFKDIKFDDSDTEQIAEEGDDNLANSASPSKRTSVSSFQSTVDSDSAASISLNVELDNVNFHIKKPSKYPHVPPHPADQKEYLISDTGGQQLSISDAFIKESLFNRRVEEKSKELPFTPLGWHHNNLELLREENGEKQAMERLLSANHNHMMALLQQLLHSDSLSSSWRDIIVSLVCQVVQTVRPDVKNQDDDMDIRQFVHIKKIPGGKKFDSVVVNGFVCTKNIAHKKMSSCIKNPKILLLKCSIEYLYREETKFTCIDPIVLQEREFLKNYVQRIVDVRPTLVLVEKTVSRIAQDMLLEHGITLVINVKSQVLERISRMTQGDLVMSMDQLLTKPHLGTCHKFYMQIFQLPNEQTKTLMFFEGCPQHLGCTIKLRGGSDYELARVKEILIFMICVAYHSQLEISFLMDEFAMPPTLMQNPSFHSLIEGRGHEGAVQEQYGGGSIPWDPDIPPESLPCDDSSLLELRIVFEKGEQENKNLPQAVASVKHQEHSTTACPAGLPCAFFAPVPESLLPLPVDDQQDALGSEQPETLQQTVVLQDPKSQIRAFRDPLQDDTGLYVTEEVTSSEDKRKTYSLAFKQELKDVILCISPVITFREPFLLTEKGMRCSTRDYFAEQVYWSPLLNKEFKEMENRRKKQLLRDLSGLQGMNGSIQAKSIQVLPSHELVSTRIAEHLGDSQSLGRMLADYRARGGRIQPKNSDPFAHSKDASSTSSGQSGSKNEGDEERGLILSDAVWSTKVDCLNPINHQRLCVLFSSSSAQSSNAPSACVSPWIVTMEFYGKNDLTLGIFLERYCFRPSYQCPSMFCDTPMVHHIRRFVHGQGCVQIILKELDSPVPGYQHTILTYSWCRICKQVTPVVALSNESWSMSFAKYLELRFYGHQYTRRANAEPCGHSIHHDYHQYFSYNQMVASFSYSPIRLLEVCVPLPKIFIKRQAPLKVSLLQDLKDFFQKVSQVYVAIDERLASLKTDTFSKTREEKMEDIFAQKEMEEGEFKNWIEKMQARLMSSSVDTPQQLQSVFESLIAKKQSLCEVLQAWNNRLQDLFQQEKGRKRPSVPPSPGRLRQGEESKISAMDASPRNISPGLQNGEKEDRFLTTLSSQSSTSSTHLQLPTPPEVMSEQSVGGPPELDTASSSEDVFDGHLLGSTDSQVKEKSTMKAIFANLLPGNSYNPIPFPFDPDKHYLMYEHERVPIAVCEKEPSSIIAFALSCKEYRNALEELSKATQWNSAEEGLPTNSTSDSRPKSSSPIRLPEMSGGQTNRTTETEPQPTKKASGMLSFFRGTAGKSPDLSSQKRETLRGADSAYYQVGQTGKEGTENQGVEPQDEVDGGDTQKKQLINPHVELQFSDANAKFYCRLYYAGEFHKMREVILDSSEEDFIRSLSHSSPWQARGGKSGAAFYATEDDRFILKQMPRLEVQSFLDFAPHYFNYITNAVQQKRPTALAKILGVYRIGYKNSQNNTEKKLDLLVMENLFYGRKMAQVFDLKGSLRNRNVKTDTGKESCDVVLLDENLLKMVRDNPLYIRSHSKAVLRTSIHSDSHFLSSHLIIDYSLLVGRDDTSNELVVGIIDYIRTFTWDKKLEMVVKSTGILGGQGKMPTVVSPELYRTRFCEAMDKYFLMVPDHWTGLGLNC
# BMPR1B = BMPR1B (Homo sapiens, UniProt O00238); conditions: cited from earlier work
# Chain of BMPR1B (O00238 14-502): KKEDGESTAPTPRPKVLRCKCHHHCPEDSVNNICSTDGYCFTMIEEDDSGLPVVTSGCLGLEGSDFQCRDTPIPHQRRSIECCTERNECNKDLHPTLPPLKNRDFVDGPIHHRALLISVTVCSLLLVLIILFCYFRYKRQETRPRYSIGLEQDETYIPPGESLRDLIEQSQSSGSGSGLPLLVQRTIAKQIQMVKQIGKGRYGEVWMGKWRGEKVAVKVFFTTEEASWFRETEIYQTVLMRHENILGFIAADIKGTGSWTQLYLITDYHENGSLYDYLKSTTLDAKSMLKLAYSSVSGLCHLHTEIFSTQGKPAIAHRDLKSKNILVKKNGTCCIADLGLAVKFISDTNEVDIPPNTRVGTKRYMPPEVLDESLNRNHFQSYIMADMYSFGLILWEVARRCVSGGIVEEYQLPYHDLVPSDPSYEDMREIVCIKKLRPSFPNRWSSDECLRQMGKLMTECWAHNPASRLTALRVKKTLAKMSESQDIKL
Structure (SMILES),TFEB % (endogenous TFEB),TFE3 % (endogenous TFE3),nTFE3 % (endogenous TFE3),DQ Intensity (SH-SY5Y cells),DQ Spot (SH-SY5Y cells),KINOMEscan binding PRKD1 (PRKD1),KINOMEscan binding CDC42BPG/DMPK2 (CDC42BPG/DMPK2),KINOMEscan binding CIT (CIT),KINOMEscan binding ACVR1B (ACVR1B),KINOMEscan binding PRKD3 (PRKD3),KINOMEscan binding JAK1(JH2) (JAK1(JH2)),KINOMEscan binding CSNK1D (CSNK1D),KINOMEscan binding PIKFYVE (PIKFYVE),KINOMEscan binding BMPR1B (BMPR1B)
Cc1cccc(-c2nc(Nc3ccc4ncsc4c3)c3ccccc3n2)n1 [GW867588],27.23%,18.78%,18.7%,95.27,103.18,98.7%,9%,13%,35%,66%,62%,0%,54%,0%
Cc1csc(-c2nc(Nc3ccncc3)c3ccccc3n2)n1 [GW869640],2.75%,13.20%,13%,86.86,102.29,69%,35%,61%,94.7%,71%,74%,46%,78%,42%
Cc1cccc(-c2nc(Nc3ccncc3)c3sccc3n2)n1 [GW869641],20.32%,6.93%,6.9%,90.97,102.97,99.3%,98.5%,96.6%,96.5%,90.7%,90.2%,90%,86%,82%
Cc1cc(Nc2nc(-c3cccc(C)n3)nc3ccccc23)ccn1 [GW872411],5.91%,20.21%,20.2%,103.32,114.14,99.4%,2%,0%,73%,76%,81%,35%,53%,0%
Clc1cccc(-c2nc(Nc3ccncc3)c3ccccc3n2)c1 [GW873004],4.68%,19.51%,19.5%,102.26,118.51,47%,84%,57%,72%,44%,16%,12%,61%,4%
Cc1cccc(-c2nc(Nc3cccc(C(N)=O)c3)c3ccccc3n2)n1 [GW876019],7.94%,17.52%,17.5%,115.76,107.41,64%,0%,45%,83%,87%,78%,8%,16%,0%
Cc1cccc(-c2nc(Nc3ccc4c(cnn4C)c3)c3ccccc3n2)n1 [GW876731],18.65%,20.31%,20.3%,96.16,100.57,99.2%,22%,12%,64%,90.2%,16%,50%,91.5%,0%
